Assay results taken from publication PMC5701947, “β1-Adrenergic Receptor Contains Multiple IA^k and IE^k Binding Epitopes That Induce T Cell Responses with Varying Degrees of Autoimmune Myocarditis in A/J Mice” (Frontiers in Immunology, 2017).
Entries after “also recorded” stand apart in the source; their conditions may differ. Values belong to the compound of their own block, whether it stands above or below them. Residues, ends and D or L forms follow the SMILES beside them. No end group written: not given here.

What was measured:
IA^k = target: T1, IA^k (Mus musculus, UniProt P01910+P06343); test: MHC class II-binding assay, IA^k; set-up: species or system A/J mice; details: competition with biotinylated HEL 46–61 (1 µM); empty IA^k monomers 0.35 µg; competitor 0.00001–100 µM; pH 7.0, overnight, RT; DELFIA europium fluorescence 340/615 nm; mean ± SEM, three experiments with two replicates each
T1 construct: soluble IA^k and IE^k monomers were expressed; class II-associated invariant-chain peptide (CLIP) 88–102 (VSQMRMATPLLMRPM) with thrombin cleavage site (cleaved yes); made in house; host or cells: baculovirus expression (sf9 cells are named only for the IA^k dextramer constructs)
Method: A/J mice express two MHC class II alleles, IA^k and IE^k ([33], [34]), and to determine the affinities of β1AR peptides, soluble IA^k and IE^k monomers were expressed ([34], [35]). In brief, the β-chain in each of IA^k and IE^k constructs contain sequence for class II-associated invariant-chain peptide 88–102 (VSQMRMATPLLMRPM) linked with thrombin cleavage site ([34], [35]). After expressing in the baculovirus, soluble IA^k and IE^k monomers were treated with thrombin (20 U/mg; Novagen, Madison, WI, USA) to release class II-associated invariant-chain peptide leading us to obtain empty IA^k and IE^k molecules. Reaction mixtures were prepared to include empty IA^k or IE^k monomers (0.35 µg), competitor peptides (β1ARAc 171–190, β1ARAc 181–200, β1ARAc 201–220, and β1ARAc 211–230) (0.00001–100 µM), and constant amounts of the biotinylated reference peptides HEL 46–61 (for IA^k) or MCC 82–103 (for IE^k) (1 µM) in a buffer containing 50 mM sodium phosphate pH 7.0, 100 mM sodium chloride, 1 mM EDTA, and 1 × protease inhibitor (Sigma-Aldrich, St. Louis, MO, USA) ([36]–[38]). After incubating overnight at RT, the mixtures were transferred to 96-well white fluorescence plates coated with anti-IA^k (clone 10-2.16, BioXcell, West Lebanon, NH, USA), and anti-IE^k (clone M5/114, BioXcell) Abs (10 µg/ml) in 0.2 M sodium phosphate buffer, pH 6.8, blocked with 2% bovine casein; and the plates were incubated on a rocker at RT for 1 h. Finally, after adding 100 µl of europium-labeled streptavidin (0.1 µg/ml) and dissociation-enhanced lanthanide fluoroimmunoassay (DELFIA) enhancement solution (Perkin Elmer) sequentially, fluorescence intensities were measured at excitation/emission wavelengths of 340/615 nm using a Victor Multilabel Plate Reader (Perkin Elmer). The IC50 values were determined based on the concentrations of competitor peptides needed to prevent 50% binding of the reference peptides as we have described previously ([26], [28], [30]).

[1] = system: non-cardiac tissues (brain, lung, liver, kidney); details: mouse, in vivo
rabbits, rats, and mice = details: cited from earlier work
Source text: While, an assumption made in these studies that a single epitope of β1AR can act as an immunogen in various species despite the major histocompatibility complex (MHC) alleles to be different was found valid, identification of other potential immunodominant epitopes, if any, was not explored. Lik ... || In this report, we describe identification of T cell epitopes of β1AR in A/J mice that are highly susceptible to lymphocytic myocarditis induced by various cardiac antigens namely, Myhc ([28]), cardiac troponin I ([47]), ANT ([26]), and BCKD kinase ([30]). Importance of β1AR in the cardiac disease has long been investigated in that patients with myocarditis/DCM, in particular, IDCM show β1AR-reactive antibodies.

A/J mice (hearts) = test: Induction of myocarditis by active immunization with peptides (histology); format: in vivo; details: for Myocarditis incidence / Myocarditis incidence (animals with disease/total) / Inflammatory foci: individual non-acetylated peptide, 100 µg per animal; for Myocarditis incidence / Myocarditis incidence (animals with disease/total): CFA/PT, days 0 and 7, day 21; for Inflammatory foci: mean ± SEM of myocarditic animals
[2] = system: T cells (lymph node cells/splenocytes from immunized animals); test: T cell proliferation assay ([3H]-thymidine); format: cell-based, A/J mice; details: for T cell responses: fold vs medium control; for T cell responses (in words): proliferation, 0–100 µg/ml, 2 days + 16 h [3H]-thymidine, cpm
Method: At termination, lymph nodes (maxillary, mandibular, axillary, inguinal, and popliteal) and spleens were harvested from immunized animals to prepare single cell suspensions. Similarly, splenocytes were prepared from naive animals. After lysing the erythrocytes and washing, cell pellets were suspended in RPMI medium containing 10% fetal bovine serum, 1 mM sodium pyruvate, 4 mM L-glutamine, 1 × each of non-essential amino acids and vitamin mixture, and 100 U/ml penicillin–streptomycin (Lonza, Walkersville, MD, USA; hereafter called growth medium). In some experiments, CD4 T cells and CD8 T cells were enriched to a purity of ~95% by negative selection based on magnetic separation using IMAG (BD Biosciences, San Jose, CA, USA) ([31]). To stimulate CD4 and CD8 T cells, syngeneic naive irradiated splenocytes loaded with peptides were used as antigen-presenting cells at a ratio of 1:1. Cells were stimulated at a density of ~5 × 10^6 cells/ml in triplicates with or without the immunizing peptides (0–100 µg/ml) in growth medium. RNase 43–56 or HEL 46–61 were used as irrelevant controls. After 2 days, cells were pulsed with tritiated ^3[H]-thymidine (1 μCi/well; MP Biomedicals, Santa Ana, CA, USA), and 16 h later, proliferative responses were measured as counts per minute (cpm) using a Wallac liquid scintillation counter (Perkin Elmer, Waltham, MA, USA) ([26], [28], [30]).

[3] = 10 μg/ml, animals immunized with pool IV
[4] = 100 μg/ml, animals immunized with pool IV
[5] = 10 μg/ml, animals immunized with pool VIII
[6] = 100 μg/ml, animals immunized with pool VIII
[7] = 10 μg/ml, animals immunized with pool IX
[8] = 100 μg/ml, animals immunized with pool IX

T1 sequence (P01910 24-218 limits assumed): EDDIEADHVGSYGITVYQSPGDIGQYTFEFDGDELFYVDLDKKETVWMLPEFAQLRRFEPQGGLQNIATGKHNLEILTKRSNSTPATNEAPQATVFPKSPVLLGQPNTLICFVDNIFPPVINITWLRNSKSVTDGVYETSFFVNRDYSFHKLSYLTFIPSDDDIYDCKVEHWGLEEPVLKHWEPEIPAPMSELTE
T1 sequence (P06343 28-224 limits assumed): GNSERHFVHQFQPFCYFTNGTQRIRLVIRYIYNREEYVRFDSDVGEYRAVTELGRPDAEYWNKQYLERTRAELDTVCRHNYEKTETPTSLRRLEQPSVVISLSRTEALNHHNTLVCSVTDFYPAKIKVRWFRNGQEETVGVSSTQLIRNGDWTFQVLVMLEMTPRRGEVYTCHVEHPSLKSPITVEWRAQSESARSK

IC50 (IA^k): 18.6 ± 1.23 µM
Brain, inflammatory foci [1]: 0
Kidney, inflammatory foci [1]: 0
Liver, inflammatory foci [1]: 20.33 ± 4.83
Lung, inflammatory foci [1]: 2.50 ± 1.34
Compound: CC[C@H](C)[C@H](NC(=O)[C@H](C)NC(=O)[C@H](Cc1ccc(O)cc1)NC(=O)[C@H](C)NC(=O)[C@H](CCCNC(=N)N)NC(=O)[C@H](CC(N)=O)NC(=O)[C@@H](NC(=O)[C@@H](NC(=O)[C@H](Cc1ccccc1)NC(=O)[C@H](CC(=O)O)NC(=O)[C@H](CS)NC(=O)[C@H](CS)NC(=O)[C@H](CCCCN)NC(=O)[C@@H]1CCCN1C(=O)[C@H](CC(=O)O)NC(=O)[C@H](CC(N)=O)NC(C)=O)C(C)C)[C@@H](C)O)C(=O)N[C@@H](C)C(=O)N[C@@H](CO)C(=O)N[C@@H](CO)C(=O)N[C@H](C(=O)O)C(C)C [β1ARAc 211–230] (Ac-NDPKCCDFVTNRAYAIASSV-OH)
Brain, incidence (animals affected/total) [1]: 0/5
Brain, incidence of inflammation [1]: 0%
Kidney, incidence (animals affected/total) [1]: 0/6
Kidney, incidence of inflammation [1]: 0%
Liver, incidence (animals affected/total) [1]: 6/6
Liver, incidence of inflammation [1]: 100%
Lung, incidence (animals affected/total) [1]: 5/6
Lung, incidence of inflammation [1]: 83%

IC50 (IA^k): 26.1 ± 12.4 µM
Brain, inflammatory foci [1]: 0
Kidney, inflammatory foci [1]: 0
Liver, inflammatory foci [1]: 29.17 ± 6.83
Lung, inflammatory foci [1]: 4.33 ± 0 .21
Compound: Ac-TRARARALVCTVWAISALVS [β1ARAc 171–190]
Brain, incidence (animals affected/total) [1]: 0/6
Brain, incidence of inflammation [1]: 0%
Kidney, incidence (animals affected/total) [1]: 0/6
Kidney, incidence of inflammation [1]: 0%
Liver, incidence (animals affected/total) [1]: 6/6
Liver, incidence of inflammation [1]: 100%
Lung, incidence (animals affected/total) [1]: 6/6
Lung, incidence of inflammation [1]: 100%

IC50 (IA^k): 97.1 ± 2.07 µM
Brain, inflammatory foci [1]: 0
Kidney, inflammatory foci [1]: 0
Liver, inflammatory foci [1]: 44.50 ± 11.66
Lung, inflammatory foci [1]: 3.17 ± 0.60
Compound: Ac-TVWAISALVSFLPILMHWWR [β1ARAc 181–200]
Brain, incidence (animals affected/total) [1]: 0/6
Brain, incidence of inflammation [1]: 0%
Kidney, incidence (animals affected/total) [1]: 0/6
Kidney, incidence of inflammation [1]: 0%
Liver, incidence (animals affected/total) [1]: 6/6
Liver, incidence of inflammation [1]: 100%
Lung, incidence (animals affected/total) [1]: 6/6
Lung, incidence of inflammation [1]: 100%

Compound: HWWRAESDEARRCYNDPKCCDFVTNR [β1AR 197–222]
Cardiac abnormalities in Balb/c mice (in words) (rabbits, rats, and mice; Balb/c mice): cardiac abnormalities could be detected in Balb/c mice only at 25 weeks but not at 14 weeks postimmunization
Antibody induction in rodent species (in words) (rabbits, rats, and mice): shown to induce antibodies in various rodent species
Cardiomyopathy on prolonged immunization (in words) (rabbits, rats, and mice; monthly/biweekly immunizations for 6–18 months): developed cardiac dysfunctions suggestive of DCM, with minimal or no heart infiltrates; also recorded: can develop features of cardiomyopathy during the course of ~1 year with little or no myocarditis
Cardiomyopathic changes in rats (in words) (rabbits, rats, and mice; rats, prolonged immunization): early cardiomyopathic changes at 1 year, but with no necrosis or fibrosis including changes in heart to body weight ratios

Compound: NDPKCCDFVTNRAYAIASSV [β1AR 211-230, 20-mer of mouse β1AR peptide library]
Disease severity (in words) (A/J mice (hearts); individual immunization, non-acetylated peptides): mild disease
Myocarditis incidence (A/J mice (hearts)): 40%
Myocarditis incidence (animals with disease/total) (A/J mice (hearts)): 2/5
Inflammatory foci (A/J mice (hearts)): 2.0 ± 1.0
T cell responses [2, 3]: 3.15 fold
T cell responses [2, 4]: 3.27 fold

Compound: β1AR 191-210: 20-mer of mouse β1AR peptide library (FLPILMHWWRAESDEARRCY; UniProt P34971 191-210, looked up, fragment)
Myocarditis incidence (A/J mice (hearts)): 0%
Myocarditis incidence (animals with disease/total) (A/J mice (hearts)): 0/5
Inflammatory foci (A/J mice (hearts)): 0
T cell responses [2, 3]: 1.26 fold
T cell responses [2, 4]: 1.63 fold

Compound: β1AR 201-220: 20-mer of mouse β1AR peptide library (AESDEARRCYNDPKCCDFVT; UniProt P34971 201-220, looked up, fragment)
Myocarditis incidence (A/J mice (hearts)): 0%
Myocarditis incidence (animals with disease/total) (A/J mice (hearts)): 0/5
Inflammatory foci (A/J mice (hearts)): 0
T cell responses [2, 3]: 1.08 fold
T cell responses [2, 4]: 1.37 fold

Compound: β1AR 381-400: 20-mer of mouse β1AR peptide library (CCARRAACRRRAAHGDRPRA; UniProt P34971 381-400, looked up, fragment)
Myocarditis incidence (A/J mice (hearts)): 0%
Myocarditis incidence (animals with disease/total) (A/J mice (hearts)): 0/5
Inflammatory foci (A/J mice (hearts)): 0
T cell responses [2, 5]: 1.10 fold
T cell responses [2, 6]: 1.45 fold
T cell responses (in words) [2]: did not show T cell responses

Compound: β1AR 391-410: 20-mer of mouse β1AR peptide library (RAAHGDRPRASGCLARAGPP; UniProt P34971 391-410, looked up, fragment)
Myocarditis incidence (A/J mice (hearts)): 0%
Myocarditis incidence (animals with disease/total) (A/J mice (hearts)): 0/5
Inflammatory foci (A/J mice (hearts)): 0
T cell responses [2, 5]: 1.03 fold
T cell responses [2, 6]: 1.18 fold
T cell responses (in words) [2]: did not show T cell responses

Compound: β1AR 431-450: 20-mer of mouse β1AR peptide library (RLLEPWTGCNGGTTTVDSDS; UniProt P34971 431-450, looked up, fragment)
T cell responses [2, 7]: 1.14 fold
T cell responses [2, 8]: 1.18 fold

Compound: β1AR 441-460: 20-mer of mouse β1AR peptide library (GGTTTVDSDSSLDEPGRQGF; UniProt P34971 441-460, looked up, fragment)
T cell responses [2, 7]: 0.79 fold
T cell responses [2, 8]: 1.01 fold

Compound: β1AR 451-466: 16-mer of mouse β1AR peptide library (SLDEPGRQGFSSESKV; UniProt P34971 451-466, looked up, fragment)
T cell responses [2, 7]: 0.95 fold
T cell responses [2, 8]: 1.16 fold
